Where two headings read alike, the source gives them in different places. Numbered stars: 1 amine (or outer) side, 2 acyl side, 3 side chain; on linkers, the order of the positions; unused ones are H or OH. Square brackets hold non-standard residues; d marks the D form. Side chains are listed from the residue outwards. * marks the point of attachment. C20 diacid = O=C(O)CCCCCCCCCCCCCCCCCCC(=O)*; C18 diacid = O=C(O)CCCCCCCCCCCCCCCCC(=O)*; γGlu = O=C(O)[C@H](CCC(=O)[*:2])N[*:1]; AEEA = NCCOCCOCC(=O)O; Aib = CC(C)(N)C(=O)O
Key:
Assay type in all cases: cell-based
[1] = biological target: T1, human GIP receptor (hGIPR) (Homo sapiens, UniProt P48546); test: GIP receptor assay, method A (CRE-luciferase reporter, BHK cells)
T1 construct: expressed in transfected cells
T1 sequence (P48546 22-466): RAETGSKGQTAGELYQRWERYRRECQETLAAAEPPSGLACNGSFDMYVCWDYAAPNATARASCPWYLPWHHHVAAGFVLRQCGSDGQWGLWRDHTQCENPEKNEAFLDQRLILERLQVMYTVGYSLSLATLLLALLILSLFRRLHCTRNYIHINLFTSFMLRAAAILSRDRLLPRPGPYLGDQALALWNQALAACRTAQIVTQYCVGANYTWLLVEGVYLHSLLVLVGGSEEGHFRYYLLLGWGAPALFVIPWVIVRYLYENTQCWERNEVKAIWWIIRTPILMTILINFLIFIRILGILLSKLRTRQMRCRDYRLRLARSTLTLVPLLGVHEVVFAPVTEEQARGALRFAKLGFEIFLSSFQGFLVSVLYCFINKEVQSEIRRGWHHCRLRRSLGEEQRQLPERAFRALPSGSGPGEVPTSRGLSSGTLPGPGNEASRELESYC
Method: To assess how the activation of the receptors is potentially influenced by the presence of human serum albumin (HSA), the in vitro assays were performed in the absence of HSA and presence of 1% (w/v) HSA. Unless stated otherwise the reference to the “GIP receptor assay as described in Example 4” throughout the specification shall refer to the described herein assay procedure method A (hGIPR assay) in the absence of HSA.
Activation of the human GIP receptor leads to increased intra-cellular concentrations of cyclic AMP (cAMP) and the consequent transcription activation from promoters containing multiple copies of the cAMP response element (CRE). It is thus possible to measure GIP receptor activity using a CRE-luciferase reporter gene introduced into Baby Hamster Kidney (BHK) cells co-expressing the human GIP receptor.
Cells at about 80-90% confluency were washed once with PBS (Gibco 14190-094) and detached from the cell flasks with Versene (Gibco, 15040-066). After centrifugation, the cells were counted, resuspended and diluted to approximately 1.5-3.0×10^6 (1.5E+6 to 3.0E+6) cells/mL in Recovery Cell Culture Freezing Medium (Gibco, 12648-010) and stored at −180° C. in suitable aliquots until use.
(§1) The assay buffer consisted of DMEM without phenol red (Gibco, 11880-028) supplemented with 1× GlutaMAX (Gibco, 35050-038), 10 mM HEPES (Gibco, 15630-056), 1% (w/v) ovalbumin (Sigma, A5503) and 0.1% (v/v) Pluronic F-68 (Gibco, 24040-032) either with HSA or without HSA (Sigma, A9511).
On the day before the assay hGIPR BHK Cre-Luc cells were thawed and plated out in 96 well Culture Plates (PerkinElmer/Revvity, 6005680) at 5.0×10^3 (5.0E+3) cells/well in growth medium as described above. The plates were then incubated for 21-23 hours at 37° C. with 5% CO2. On the day of the assay GLP-1-/GIP-/amylin-receptor tri-agonists or reference compounds were diluted in assay buffer using a 7-point, 10-fold titration plus a blank (absence of compound). Each compound was diluted and tested in duplicates in each experiment. In the plates containing the cells the growth medium was removed, and cells were washed twice with 100 μL PBS (Gibco 14190-094). 50 μL of the test compound dilutions were added to the plates containing cells preceded by 50 μL assay buffer with or without 2% (w/v) HSA (Sigma, A9511). The cell plates were incubated for 3 hours in a 5% CO2 incubator at 37° C. The plates were then transferred to room temperature followed by addition of 100 μL steadylite Plus™ (PerkinElmer/Revvity, 6066759). The plates were sealed and shaken for 30 minutes at room temperature while protected from light. Finally, luminescence (as an indicator of receptor activation) was measured on a Mithras reader (Berthold Technologies, DE). The EC50-values [pM] were calculated by non-linear curve fitting applying a four-parameter logistic model (Hill slope=“shared value for all datasets”) using GraphPad Prism (GraphPad Software, Boston, MA, USA).

[2] = biological target: T2, human amylin receptor (hAMYR3) (Homo sapiens, UniProt O60896+P30988); test: Amylin receptor assay, method A (CRE-luciferase reporter, BHK cells)
T2 construct: host or cells: BHK cells (Hollex-1 line expressing hCTR(a) and CRE-Luc), further transfected with human RAMP3
T2 sequence (P30988 25-474): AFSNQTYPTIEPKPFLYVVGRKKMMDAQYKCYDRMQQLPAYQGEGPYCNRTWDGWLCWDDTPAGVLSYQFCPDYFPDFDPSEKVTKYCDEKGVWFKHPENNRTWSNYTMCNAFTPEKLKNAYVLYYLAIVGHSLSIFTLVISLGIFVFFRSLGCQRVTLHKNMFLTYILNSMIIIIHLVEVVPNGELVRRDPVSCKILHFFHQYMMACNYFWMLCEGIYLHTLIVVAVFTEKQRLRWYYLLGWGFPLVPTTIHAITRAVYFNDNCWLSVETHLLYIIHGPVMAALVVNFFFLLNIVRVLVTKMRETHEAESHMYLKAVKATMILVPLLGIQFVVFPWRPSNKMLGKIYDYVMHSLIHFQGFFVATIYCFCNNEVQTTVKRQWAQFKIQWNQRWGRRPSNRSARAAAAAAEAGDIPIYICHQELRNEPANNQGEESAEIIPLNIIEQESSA
T2 sequence (O60896 24-148): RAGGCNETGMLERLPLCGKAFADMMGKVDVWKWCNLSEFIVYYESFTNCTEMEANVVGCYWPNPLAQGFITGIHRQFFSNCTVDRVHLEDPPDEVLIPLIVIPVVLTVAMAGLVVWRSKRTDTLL
Method: (§2) To assess how the activation of the receptors is potentially influenced by the presence of human serum albumin (HSA), the in vitro assays were performed in the absence of HSA and presence of 1% (w/v) HSA.
It is thus possible to measure hAMYR3 activity using a CRE-luciferase reporter gene introduced into Baby Hamster Kidney (BHK) cells co-expressing the hAMYR3.
The cell line was further transfected with human receptor modifying protein 3 (RAMP3) using standard methods.
After centrifugation, the cell pellet was resuspended and diluted to approximately 2.5-4.0×10^6 (2.5E+6 to 4.0E+6) cells/mL in Recovery™ Cell Culture Freezing Medium (Gibco, 12648-010). Cells were aliquoted and stored at −180° C. until use.
as §1, with “15630-056) and” for “15630-056),”, “either with or without” for “and”, “24040-032) and” for “24040-032)”, “with” for “with HSA”
The plate was incubated over night at 37° C. in 5% CO2. […] Luminescence was detected on a luminescence plate reader e.g., a Synergy 2 (BioTek).

[3] = biological target: T3, human GLP-1 receptor (hGLP-1R) (Homo sapiens, UniProt P43220); test: GLP-1 receptor assay, method A (CRE-luciferase reporter, BHK cells)
T3 construct: expressed in transfected cells
T3 sequence (P43220 24-463): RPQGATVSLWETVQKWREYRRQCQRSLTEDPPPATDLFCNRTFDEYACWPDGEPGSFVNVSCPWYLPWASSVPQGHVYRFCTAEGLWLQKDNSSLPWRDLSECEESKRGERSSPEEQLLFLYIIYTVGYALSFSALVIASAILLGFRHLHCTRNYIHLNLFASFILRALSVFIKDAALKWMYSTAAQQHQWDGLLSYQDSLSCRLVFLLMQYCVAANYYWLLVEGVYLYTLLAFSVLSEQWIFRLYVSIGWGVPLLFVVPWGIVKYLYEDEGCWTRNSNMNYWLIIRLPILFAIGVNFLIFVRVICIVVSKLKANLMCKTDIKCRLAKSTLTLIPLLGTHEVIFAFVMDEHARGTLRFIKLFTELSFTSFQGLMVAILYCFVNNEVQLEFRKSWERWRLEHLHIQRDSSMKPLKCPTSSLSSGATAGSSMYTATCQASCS
Method: as §2
Cells at approximately 80-90% confluence were washed once in PBS (Gibco 14190-094) and loosened from the cell flasks with Versene (Gibco, 15040-033). […] Cells were aliquoted and stored at −180° C. until use.
as §1
Frozen stocks of hGLP-1R BHK CRE-Luc cells were thawed in a 37° C. water bath, washed once in PBS (Gibco 14190-094) and diluted to 1.5×10^6 (1.5E+6) cells/mL in assay buffer with or without 2% (w/v) HSA (Sigma, A9511). […] The assay plates were incubated for 3 hours at 37° C. in 5% CO2, left at room temperature for 5 minutes after which 100 μL steadylite Plus™ (PerkinElmer/Revvity, 6066759) was added to each well. Plates were sealed and incubated at room temperature with gentle shaking for 30 minutes while protected from light. Luminescence was detected on a luminescence plate reader e.g., a Synergy 2 (BioTek).

[4] = hGIPR Potency, 1% HSA, EC50, method A, in the presence of 1% HSA
[5] = method A, absence of HSA, read-out: hGIPR Potency, no HSA, EC50
[6] = hAMYR3 Potency, 1% HSA, EC50, method A, in the presence of 1% HSA
[7] = method A, absence of HSA, read-out: hAMYR3 Potency, no HSA, EC50
[8] = hGLP-1R Potency, 1% HSA, EC50, method A, in the presence of 1% HSA
[9] = method A, absence of HSA, read-out: hGLP-1R Potency, no HSA, EC50
[10] = hGIPR Potency, no HSA, EC50, method A, absence of HSA
[11] = hAMYR3 Potency, no HSA, EC50, method A, absence of HSA
[12] = hGLP-1R Potency, no HSA, EC50, method A, absence of HSA

Substance | EC50 [1, 4] | EC50 [1, 5] | EC50 [2, 6] | EC50 [2, 7] | EC50 [3, 8] | EC50 [3, 9] | EC50 [1, 10] | EC50 [2, 11] | EC50 [3, 12]
H[Aib]HGTFTSDYSILLEEQAAREFIEWLLAGGPSK([AEEA-AEEA-γGlu-C18 diacid])GALAQTLGTNEASELSTAALGRLSAELHRLATLPRTETGSGSP-NH2 [Compound 44] | – | 6.3 pM | – | 3.8 pM | – | 3.68 pM | – | – | –
H[Aib]HGTFTSDYSILLEEQAAREFIEWLLAGGPSK([AEEA-AEEA-γGlu-C18 diacid])GAPPPSGGGEASELSTAALGRLSAELHRLATLPRTETGSGSP-NH2 [Compound 30] | – | 6.8 pM | – | 2.28 pM | – | 6.37 pM | – | – | –
H[Aib]HGTFTSDYSILLEEQAAREFIEWLLAGGPSK([AEEA-AEEA-γGlu-C18 diacid])GEASQLSTAALGRLSAELHRLADLPRTETGSGSP-NH2 [Compound 43] | 186 pM | – | 56.5 pM | – | 41.5 pM | – | 4.38 pM | 3.13 pM | 4.31 pM
H[Aib]HGTFTSDYSILLEEQAAREFIEWLLAGGPSK([γGlu-C18 diacid])GAPPPSGGGEASHLSTAQTARLSAELHRLADLPRTETGSGSP-NH2 [Compound 112] | 321 pM | – | 269 pM | – | 336 pM | – | 2.42 pM | 3.65 pM | 4.37 pM
H[Aib]HGTFTSDYSILLEEQAAREFIEWLLAGGPSRGAPPPSGGGEASELSTAALGRLSAELHK([AEEA-AEEA-γGlu-C18 diacid])LATLPRTETGSGSP-NH2 [Compound 70] | 19.1 pM | 5.89 pM | 59.4 pM | 4.53 pM | 18.4 pM | 3.48 pM | – | – | –
H[Aib]HGTFTSDYSILLEEQAAREFIEWLLAGGPSSGALAQTLAQTLASHLSTAQTQRLSAELHK([AEEA-AEEA-γGlu-C18 diacid])LATLPRTETGSGSP-NH2 [Compound 51] | 61.9 pM | 8.37 pM | 57.1 pM | 6.19 pM | 32.2 pM | 7.68 pM | – | – | –

Now from value to substance, other results behind:

EC50 [1, 4] | EC50 [1, 5] | EC50 [2, 6] | EC50 [2, 7] | EC50 [3, 8] | EC50 [3, 9] | Substance | EC50 [1, 10] | EC50 [2, 11] | EC50 [3, 12]
11.9 pM | 2.65 pM | 110 pM | 2.49 pM | 25.2 pM | 3.66 pM | H[Aib]HGTFTSDYSILLEEQAAREFIEWLLAGGPSGGEASHLSTAQTQRLSAELHK([AEEA-AEEA-γGlu-C18 diacid])LATLPRTETGSGSP-NH2 [Compound 75] | – | – | –
132 pM | 2.63 pM | 62.4 pM | 4.69 pM | 112 pM | 4.78 pM | H[Aib]HGTFTSDYSILLEEQAAREFIEWLLAGGPSK([AEEA-AEEA-γGlu-C18 diacid])GALAQTLGTNEASHLSTAQTQRLSAELHELATLPRTETGSGSP-NH2 [Compound 45] | – | – | –
122 pM | 5.11 pM | 58.4 pM | 3.31 pM | 130 pM | 6.69 pM | H[Aib]HGTFTSDYSILLEEQAAREFIEWLLAGGPSK([AEEA-AEEA-γGlu-C18 diacid])GAPPPSGGGASELSTAALGRLSAELHRLATLPRTETGSGSP-NH2 [Compound 86] | – | – | –
– | 4.27 pM | – | 3.22 pM | – | 2.87 pM | H[Aib]HGTFTSDYSILLEEQAAREFIEWLLAGGPSK([AEEA-AEEA-γGlu-C18 diacid])GEASELSTAALGRLSAELHRLATLPRTETGSGSP-NH2 [Compound 25] | – | – | –
– | 2.39 pM | – | 2.32 pM | – | 5.25 pM | H[Aib]HGTFTSDYSILLEEQAAREFIEWLLAGGPSK([AEEA-AEEA-γGlu-C18 diacid])GEASQLSTAALGRLSAELHHLATLPRTETGSGSP-NH2 [Compound 66] | – | – | –
9.28 pM | 2.77 pM | 274 pM | 8.66 pM | 18.4 pM | 3.34 pM | H[Aib]HGTFTSDYSILLEEQAAREFIEWLLAGGPSRGAPPPSGGGEASHLSTQTQGRLSAELHK([AEEA-AEEA-γGlu-C18 diacid])LATLPRTETGSGSP-NH2 [Compound 71] | – | – | –
13.3 pM | 3.14 pM | 73.6 pM | 2.42 pM | 33.1 pM | 5.24 pM | H[Aib]HGTFTSDYSILLEEQAAREFIEWLLAGGPSSGAGQAPGQAPGASHLSTAQTARLSAELHK([AEEA-AEEA-γGlu-C18 diacid])LATLPRTETGSGSP-NH2 [Compound 103] | – | – | –
17.3 pM | 3.57 pM | 293 pM | 1.49 pM | 19.1 pM | 4.16 pM | H[Aib]HGTFTSDYSILLEEQAAREFIEWLLAGGPSSGAGQAPGQAPGASHLSTAQTARLSAELHK([AEEA-AEEA-γGlu-C20 diacid])LATLPRTETGSGSP-NH2 [Compound 104] | – | – | –
8.76 pM | 3.87 pM | 93.1 pM | 3.07 pM | 13.9 pM | 4.1 pM | H[Aib]HGTFTSDYSILLEEQAAREFIEWLLAGGPSSGALQAPGQAPGASHLSTAQTARLSAELHRLATLPK([AEEA-AEEA-γGlu-C18 diacid])TETGSGSP-NH2 [Compound 107] | – | – | –
10.3 pM | 4.8 pM | 31.2 pM | 2.07 pM | 11.1 pM | 3.33 pM | H[Aib]HGTFTSDYSILLEEQAAREFIEWLLAGGPSSGALQAPGQAPGASHLSTAQTARLSAELHRLK([AEEA-AEEA-γGlu-C18 diacid])TLPRTETGSGSP-NH2 [Compound 106] | – | – | –

Reference: patent US20260174875A1 (Novo Nordisk A/S, priority 2023, published 2026)
